In a compilation of properties of binary mixtures (doi:10.1007/s10953-012-9875-7):

Test: xn = mol fraction of the nth substance listed
Conditions: 101 kPa

CCCC[N+]1(C)CCCC1.N#C[S-] + O
viscosity [mPa·s]
Conditions	x2 = 0	x2 = 0.0853	x2 = 0.2203	x2 = 0.3555	x2 = 0.5252	x2 = 0.6634	x2 = 0.783	x2 = 0.8623	x2 = 0.9657
298.15 K	109	92	–	49.3	–	17.6	–	–	1.74
308.15 K	70.4	59.4	45.2	33.2	–	–	7.27	–	–
318.15 K	47.8	40.3	–	23.5	14.38	9.15	5.46	–	–
328.15 K	34.1	–	23	17.3	10.87	7.02	–	2.54	0.92
338.15 K	–	21.5	–	13.08	8.49	5.53	–	2.02	–
348.15 K	19.3	16.5	–	10.21	6.81	–	2.65	1.67	–

O + CCCC[n+]1ccn(C)c1.N#C[S-]
x1 = 1
Conditions	viscosity [mPa·s]
308.15 K	0.74
318.15 K	0.63
328.15 K	0.56
348.15 K	0.46

O + CCCC[N+]1(C)CCCC1.N#C[S-]
x1 = 1
Conditions	viscosity [mPa·s]
298.15 K	0.89
308.15 K	0.74
318.15 K	0.63
328.15 K	0.56
338.15 K	0.5
348.15 K	0.43

CCCC[N+]1(C)CCCCC1.N#C[S-] + O
viscosity [mPa·s]
Conditions	x2 = 0	x2 = 0.2774	x2 = 0.3741	x2 = 0.5111	x2 = 0.6302	x2 = 0.7172	x2 = 0.8248	x2 = 0.9351
318.15 K	265	94.9	–	33	19.13	12.13	6.02	1.97
328.15 K	152	–	–	22.33	–	8.79	4.47	1.57
338.15 K	93.5	–	25.6	15.96	9.94	6.6	3.41	1.28
348.15 K	60.5	27.83	18.51	–	7.6	5.08	2.71	1.07

CCCC[n+]1ccc(C)cc1.N#C[S-] + O
viscosity [mPa·s]
Conditions	298.15 K	308.15 K	318.15 K	328.15 K	338.15 K	348.15 K
x1 = 0.0076	1.07	0.87	–	0.63	0.57	0.52
x2 = 0	86	51.75	–	23.5	–	12.86
x2 = 0.0564	–	46	30.4	21.3	15.54	11.74
x2 = 0.1655	57.6	36.4	24.6	17.5	–	–
x2 = 0.278	43.1	28	19.3	13.95	10.49	8.18
x2 = 0.3797	31.3	20.9	14.68	10.87	–	6.62
x2 = 0.4628	24.8	16.8	12.14	9.17	–	5.73
x2 = 0.5669	17.8	12.47	9.17	7.02	–	–
x2 = 0.6364	14.06	–	7.48	5.78	4.58	3.69
x2 = 0.7623	8.6	6.3	4.78	3.7	–	2.44
x2 = 0.8333	6.04	4.45	3.37	2.66	2.08	1.62
x2 = 0.9028	3.65	2.74	2.13	–	1.41	1.24
x2 = 0.957	1.98	1.53	1.23	–	0.86	–
x2 = 0.9714	–	–	–	–	–	0.64

CCCC[n+]1ccn(C)c1.N#C[S-] + O
viscosity [mPa·s]
Conditions	298.15 K	308.15 K	318.15 K	328.15 K	338.15 K	348.15 K
x2 = 0	51.74	34.9	24.2	–	12.73	9.98
x2 = 0.0998	40.2	26.9	19.1	–	10.98	8.73
x2 = 0.2007	–	–	–	12.2	9.53	7.61
x2 = 0.3169	–	18.1	–	10.12	–	6.4
x2 = 0.4346	19.5	13.91	10.4	8.04	6.37	5.14
x2 = 0.5296	15.17	10.96	8.29	6.44	–	–
x2 = 0.6426	10.8	7.95	6.05	–	3.76	3.1
x2 = 0.7201	8.27	6.14	–	–	2.96	2.48
x2 = 0.7949	5.95	4.36	3.33	2.67	–	1.86
x2 = 0.8733	3.75	2.84	2.23	1.82	1.51	1.28
x2 = 0.9444	2.02	1.58	1.27	1.05	0.9	0.78

O + CCCC[n+]1ccc(C)cc1.N#C[S-]
x1 = 1
Conditions	viscosity [mPa·s]
298.15 K	0.89
308.15 K	0.74
318.15 K	0.63
328.15 K	0.56
338.15 K	0.5
348.15 K	0.43

O + CCCC[N+]1(C)CCCCC1.N#C[S-]
x1 = 1
Conditions	viscosity [mPa·s]
328.15 K	0.56
338.15 K	0.5
348.15 K	0.43
